What all share (type): cell-based
Series [1] has as its system porcine embryonic stem cells. The note with it: for proportion of cells undergoing cell division / proliferation rate as the concentration increased (Ki-67): various concentrations in LDN-193189-containing medium.
The subject of series [2] is porcine embryonic stem cells.
Series [3] concerns porcine embryonic stem cells. As for the experimental part: To analyze the effect of LDN-193189, which is an ALK2/3 inhibitor, on feeder cell-free culture of porcine embryonic stem cells, LDN-193189 cytotoxicity was confirmed through annexin V staining (FIG. 1). […] In addition, treatment at a concentration of 1000 nM or more for 24 hours or more induced apoptosis of most cells.
To confirm the optimal concentration of “FF-embryonic stem cell culture medium” containing LDN-193189 from 100 nM to 1000 nM, the concentration was subdivided and annexin V staining was performed (FIG. 3A). […] In fact, LDN-193189 is known to inhibit the activin A signaling system involved in stem cell proliferation at high concentrations.
This is another data set of the same source.

The subject of series [4] is porcine embryonic stem cells grown on feeder cells. The experiment in a line: qPCR analysis of cells grown on feeder cells. An excerpt: Treatment with LDN-193189 reduced the spontaneous differentiation of porcine embryonic stem cells grown on feeder cells and enhanced the expression of the SSEA4 marker. This is presumed to be because it suppresses the SMAD1/5 signaling system involved in mesodermal differentiation and activates the SMAD2/3 signaling involved in the proliferation of stem cells. In addition, qPCR analysis confirmed that treatment with LDN-193189 reduced the expression of genes involved in the development of various mesodermal tissues.
A general note: Quantitative PCR measures a nucleic acid by following its amplification.

Series [5] has as its system porcine embryonic stem cells. The experiment in a line: qPCR analysis in culture medium containing FBS. The note with it: environment containing FBS.
The test system of series [6] is porcine embryonic stem cells. The experiment in a line: immunological staining of NANOG and SSEA4 in culture medium containing FBS. The note with it: culture medium in which KSR was replaced with FBS. From the text: In addition, it was confirmed whether the substance helps maintain the pluripotency of porcine embryonic stem cells in a culture medium containing fetal bovine serum (FBS), rather than a serum replacement.
As a result of confirming the pluripotency markers NANOG and SSEA4 through immunological staining, the culture medium containing FBS induced differentiation of porcine embryonic stem cells, and many cell colonies with reduced expression of NANOG and SSEA4 were discovered.

For series [7], the system named is porcine embryonic stem cells. Nature of the series: qPCR gene expression analysis in feeder cell-free culture. The note with it: LDN-193189 250 nM, cultured without feeder cells. As to the method: To analyze the expression level of pluripotency-related genes, differentiation-related genes, and the like depending on the culture period, porcine embryonic stem cells were cultured using “FF-embryonic stem cell culture medium” containing 100 nM LDN-193189 (ff-ESCs^LDN+) and “FF-embryonic stem cell culture medium” not containing LDN-193189 (ff-ESCs^LDN−), without feeder cells, and porcine embryonic stem cells were cultured as a control using the aforementioned embryonic stem cell culture medium along with feeder cells (control ESCs).
The cells were obtained on days 2, 4 and 6 after plating using each medium. Total RNA was extracted using TRIzol reagent (Invitrogen, Carlsbad, USA) and cDNA was synthesized using High-Capacity RNA-to-cDNA Kit (Applied Biosystems, Foster City, USA). cDNA was amplified using the DyNAmo HS SYBR Green qPCR kit (Thermo Fisher Scientific, Waltham, USA) with the primer sets listed in Table 1.
In addition, as shown in C and D of FIG. 2, the effect of treatment with LDN-193189 (250 nM), which is an inhibitor of the SMAD1/5 signaling system, on feeder cell-free culture of porcine embryonic stem cells was confirmed.

Series [8] has as its system porcine embryonic stem cells grown on feeder cells. The experiment in a line: pluripotency marker staining of cells grown on feeder cells. From the text:
The effect of medium for feeder cell-free culture containing LDN-193189 on porcine embryonic stem cells grown on feeder cells was confirmed.

This is an account of results in patent publication US20250051724A1, “MEDIUM COMPOSITION FOR CULTURING PORCINE PLURIPOTENT STEM CELLS” (SPACE F CORPORATION, priority 2022, published 2025).

A value given as a limit tells only on which side of the number the result lay.

On to `Cc1c[nH]c(-c2cnc(NCCNc3ccc(C#N)cn3)nc2-c2ccc(Cl)cc2Cl)n1` [CHIR99021], for which, in series [1], the “proportion of cells undergoing cell division / proliferation rate as the concentration increased (Ki-67)” value was “gradually decreased”.
For the molecule `O=C(Nc1cccc2cccnc12)c1ccc(N2C(=O)[C@@H]3[C@H](C2=O)[C@@H]2C=C[C@H]3C2)cc1` [IWR-1], the “proportion of cells undergoing cell division / proliferation rate as the concentration increased (Ki-67)” value in series [1] is listed as “gradually increased”. Further, the cytotoxicity entry in series [2] is “showed cytotoxicity at high concentrations”. In addition, in series [2] (various concentrations), the “concentration showing the highest cellular activity” value amounted to 0.5 µM.
Consider `c1ccc2c(-c3cnn4cc(-c5ccc(N6CCNCC6)cc5)cnc34)ccnc2c1` [LDN-193189], for which the “concentration with high cytotoxicity (annexin V staining)” value in series [3] is listed as ≥ 1000 nM. In addition, in series [4], the “expression of genes involved in the development of mesodermal tissues (qPCR)” value is “reduced”. The “expression of mesoderm-related genes (qPCR)” value in series [5] is “reduced”. For the same molecule, the “FBS-induced differentiation (colonies with reduced expression of NANOG and SSEA4)” value in series [6] is reported as “alleviated”. The Ki-67 staining result in series [1] (from 100 nM to 1000 nM) is “no significant difference”. Moreover, in series [7], the “expression of genes involved in pluripotency and mesodermal tissue development” value is “restored to the level when cultured on the feeder cells”. Besides, in series [8], the “expression of the SSEA4 marker” value is “enhanced” and the spontaneous differentiation result is listed as “reduced”. For the same molecule, in series [2], the “final treatment concentration (maximum concentration that inhibits only the BMP signaling system and does not cause cytotoxicity)” value is 100 nM.
Turning to “FGF2: fibroblast growth factor 2 (hrFGF2, R&D Systems)”, the “proportion of cells undergoing cell division / proliferation rate as the concentration increased (Ki-67)” value in series [1] is listed as “gradually increased”. Further, in series [2], the “concentration at which cell activity decreased due to cytotoxicity (WST-8)” value was ≥ 100 ng/mL.
For the molecule “activin A: ActA (activin; activin A) (R&D Systems), cytokine in culture medium”, the “concentration with decreased proliferation rate (Ki-67)” value in series [1] was ≥ 10 ng/mL. Besides, the “concentration at which cell activity decreased due to cytotoxicity (WST-8)” value in series [2] was ≥ 10 ng/mL.
